In patent US20030087774A1, “Fragrance compositions for the CO2 washing process” (priority 2001, published 2003):
Values belong to the compound of their own block, whether it stands above or below them.

Assay: CO2 wash test of model fragrance A on cotton fabric (supercritical fluid extractor, GC FID)
Type: physicochemical
Details: for fraction left on fabric: from the wash test of Table 2; for % Left on Fabric: supercritical CO2 43° C., 77 bar, density 0.25 g/ml, cotton fabric
Description: The device used for this experiment was an Hewlett Packard 7680T SFE Supercritical Fluid Extractor. 1 g of cotton fabric was put into a 7 ml Thimble. 0.01 grams of the model fragrance A was applied to the uppermost part of the fabric representing the earliest stage of the CO2 cleaning process.
The CO2 properties used were: density=0.25 g/ml, pressure=77 bar (Pc=73.8 bar), temperature=43° C. These were supercritical as the Critical Temperature for CO2 is 31.1° C.
CO2 was introduced into the thimble and allowed to soak for 2 min. The thimble was flushed with CO2 for 5 min at a flow rate of 2 ml/min. The CO2/fragrance mixture was carried into the trap where the CO2 was evaporated leaving the fragrance on the analytical trap packing being maintained at −30 deg C. The trap was rinsed with Acetone. The fragrance/acetone mixture was analyzed using gas chromatography with flame ionization detection (GC FID).
The results on the GC FID were used to calculate the % of each fragrance ingredient that was retained on the fabric. (90% means that 90% of the fragrance was substantive on the fabric).

Compound: CC(=O)O[C@]1(C)CC[C@@]23C[C@@H]1C(C)(C)[C@@H]2CC[C@H]3C [Cedryl Acetate]
fraction left on fabric: 0.834
% Left on Fabric: 83%

Compound: C=C(C)[C@H]1CC=C(C)CC1 [Limonene D]
fraction left on fabric: 0.977
% Left on Fabric: 98%

Compound: CC(C)CCOC(=O)c1ccccc1O [Iso Amyl Salicylate]
fraction left on fabric: 0.759
% Left on Fabric: 76%

Compound: CC(C)=CCCC(C)CCO (centres unmarked) [Gitronellol 950, Citronellol 950]
fraction left on fabric: 0.763
% Left on Fabric: 76%

Compound: CCCCC/C(C=O)=C/c1ccccc1 [Amyl Cinnamic Aldehyde]
fraction left on fabric: 0.83
% Left on Fabric: 85%

Compound: CCOC(=O)c1ccccc1C(=O)OCC [Diethyl Phthalate]
fraction left on fabric: 0.807
% Left on Fabric: 81%

Compound: CC(=O)c1c(C)c([N+](=O)[O-])c(C(C)(C)C)c([N+](=O)[O-])c1C [Musk Ketone]
fraction left on fabric: 0.905
% Left on Fabric: 91%

Compound: C=CCc1ccc(O)c(OC)c1 [Eugenol]
fraction left on fabric: 0.794
% Left on Fabric: 79%

Compound: Methyl Ionone Gamma Coeur
% Left on Fabric: 74%

Compound: CC(=O)OCCc1ccccc1 [Phenyl Ethyl Acetate]
fraction left on fabric: 0.698
% Left on Fabric: 70%

Compound: CC(=O)O[C@@H]1C[C@H]2CC[C@]1(C)C2(C)C (racemic) [Iso Bornyl Acetate]
fraction left on fabric: 0.741
% Left on Fabric: 74%

Compound: OCCc1ccccc1 [Phenyl Ethyl Alcohol]
% Left on Fabric: 83%

Compound: CC(=O)OCC=C(C)C [Prenyl acetate]
fraction left on fabric: 0.969
% Left on Fabric: 97%

Second part, the compound after the results:

fraction left on fabric: 0.839
% Left on Fabric: 84%
Compound: C[C@@H]1CC[C@H]2C(C)(C)[C@H]3C[C@@]12CC[C@@]3(C)O [Cedrol]

fraction left on fabric: 0.846
% Left on Fabric: 85%
Compound: CC(CC=O)CCCC(C)(C)O (centres unmarked) [Hydroxy Citronellal P]

fraction left on fabric: 0.737
% Left on Fabric: 74%
Compound: C=CC(C)CCCC(C)(C)O (centres unmarked) [Dihydro Myrcenol]

fraction left on fabric: 0.863
% Left on Fabric: 86%
Compound: CCCCCCC(C=O)=Cc1ccccc1 [Hexyl Cinnamic Aldehyde]

fraction left on fabric: 0.908
% Left on Fabric: 91%
Compound: O=C(OCc1ccccc1)c1ccccc1O [Benzyl Salicylate]

fraction left on fabric: 0.729
% Left on Fabric: 73%
Compound: CC(=O)/C=C/C1C(C)=CCCC1(C)C (stereo not drawn) [Ionone, Alpha]

fraction left on fabric: 0.995
% Left on Fabric: 100%
Compound: C=C1CCC2CC1C2(C)C (stereo not drawn) [Pinene, Beta, beta-Pinene]

fraction left on fabric: 0.781
% Left on Fabric: 78%
Compound: CC(C=O)Cc1ccc(C(C)(C)C)cc1 (centres unmarked) [Lilial]

fraction left on fabric: 0.687
% Left on Fabric: 69%
Compound: CC(=O)OC1CCC(C(C)(C)C)CC1 (centres unmarked) [Oryclon/Vertenex]

fraction left on fabric: 0.799
% Left on Fabric: 80%
Compound: CC(=O)OCc1ccccc1 [Benzyl Acetate]

fraction left on fabric: 0.769
% Left on Fabric: 77%
Compound: CC(C)=CCC/C(C)=C/CO [Geraniol, Supra]

fraction left on fabric: 0.945
% Left on Fabric: 94%
Compound: O=c1ccc2ccccc2o1 [Coumarin]

fraction left on fabric: 0.689
% Left on Fabric: 69%
Compound: CC(=O)OC(C)(C)Cc1ccccc1 [Dimethyl Benzyl Carbinyl Acetate]

fraction left on fabric: 0.928
% Left on Fabric: 93%
Compound: O=C1CCCCCCCCCCCC(=O)OCCO1 [Ethylene Brassylate]

fraction left on fabric: 0.691
% Left on Fabric: 69%
Compound: Terpineol, Pure

fraction left on fabric: 0.989
% Left on Fabric: 99%
Compound: CC1=CCC2CC1C2(C)C (stereo not drawn) [Pinene, Alpha, alpha-Pinene]
